In patent US7655678B2, “Pharmaceutical composition for the management of tumors” (Council of Scientfic & Industrial Research, priority 2004, dated 2010):

What was measured:
[1] = tested on: DMBA induced mouse skin tumor development; assay: chronic animal bioassay: DMBA induced mouse skin tumor development, topical treatment; format: in vivo, female Swiss albino mice; conditions: DMBA 200 ug/kg; Cag 240 mg/kg, NA 240 mg/kg, BA 8 mmoles/kg body wt; topical twice weekly; terminated after 30 weeks; 15 animals each group
Description: We have used female Swiss albino mice from the inbred colony of Industrial Toxicology Research Center, Lucknow, India. The treatment schedule was followed as described earlier (22). Animals were shaved on the back (2×2 cm) in the interscapular region using surgical clippers. Only the animals in the resting phase of hair growth were selected for the study. For this chronic animal bioassay, we have taken 135 animals and divided them into 9 groups, consisting of 15 animals each. Group 1 served as negative control group where animals received acetone/DMSO only. For the entire study we have used 7,12-Dimethylbenz (a) anthracene (DMBA) as a skin carcinogen. DMBA was used at the dose of 200 μg/kg body wt in 0.1 ml acetone. In group 3, animals were treated with DMBA followed by concomitant application of Calcium D-glucarate (240 mg/kg body wt in 0.1 ml of DMSO). […] In group 5, animals were treated with DMBA followed by concomitant application of Butyric acid (8 mmoles in 0.1 ml of acetone). […] In group 7, animals were treated with DMBA followed by a concomitant application of Calcium D-glucarate, Butyric acid. […] All the treatments were applied topically. […] Animals were inspected regularly for tumor incidence, baldness, acne, poor health, sickness etc. Experiment was terminated after 30 weeks.
Experimental Design (15 Animals Each Group)

[2] = tested on: skin papilloma formation; conditions: topical, cited from earlier work; for rate of survival: SENCAR mice; for skin papilloma formation: from the ninth week of promotion
[3] = tested on: skin tumor formation; conditions: topical application; cited from earlier work
[4] = tested on: mouse skin papillomas; conditions: at higher concentrations; cited from earlier work

Row | SMILES | Cumulative no. of tumor [1] | No. of tumo bearing animal/Initial No. of animals [1] | Onset of firs tumor [in weeks] [1] | also measured
1 | Cc1c2ccccc2c(C)c2c1ccc1ccccc12 [DMBA, 7,12-Dimethylbenz (a) anthracene] | 62 | 15/15 | 15 weeks | 100% tumorigenesis [in weeks] [1]: 28 weeks
2 | C=CCSSCC=C [diallyl disulfide] |  |  |  | rate of survival [2]: significantly increased; skin papilloma formation [2]: significantly inhibited
3 | CC(C)=CCOc1ccc2ccc(=O)oc2c1 [7-Isopentenyloxucoumarin] |  |  |  | skin tumor formation [3]: suppressed
4 | C=CCSCC=C [diallyl sulfide] |  |  |  | rate of survival [2]: significantly increased; skin papilloma formation [2]: significantly inhibited
5 | O=C([O-])[C@@H](O)[C@@H](O)[C@H](O)[C@@H](O)C(=O)[O-].[Ca+2] [DMBA + CaG, Calcium D-glucarate] | 12 | 10/15 | 18 weeks | 
6 | CC1=C(/C=C/C(C)=C/C=C/C(C)=C/C(=O)O)C(C)(C)CCC1 [retinoic acid] |  |  |  | cytotoxicity [4]: cytotoxic
7 | NC(=O)c1cccnc1 [DMBA + NA, Nicotinamide] | 09 | 08/15 | 21 weeks | 100% tumorigenesis [in weeks] [1]: 0 weeks
